Data taken from ChEMBL document CHEMBL2331141, “Synthesis, characterization, screening and docking analysis of 4-anilinoquinazoline derivatives as tyrosine kinase inhibitors” (Eur J Med Chem, 2013).

Biological target: T1, Epidermal growth factor receptor (Homo sapiens, UniProt P00533)
Test: Inhibition of EGFR (unknown origin)

T1 sequence (P00533 whole entry): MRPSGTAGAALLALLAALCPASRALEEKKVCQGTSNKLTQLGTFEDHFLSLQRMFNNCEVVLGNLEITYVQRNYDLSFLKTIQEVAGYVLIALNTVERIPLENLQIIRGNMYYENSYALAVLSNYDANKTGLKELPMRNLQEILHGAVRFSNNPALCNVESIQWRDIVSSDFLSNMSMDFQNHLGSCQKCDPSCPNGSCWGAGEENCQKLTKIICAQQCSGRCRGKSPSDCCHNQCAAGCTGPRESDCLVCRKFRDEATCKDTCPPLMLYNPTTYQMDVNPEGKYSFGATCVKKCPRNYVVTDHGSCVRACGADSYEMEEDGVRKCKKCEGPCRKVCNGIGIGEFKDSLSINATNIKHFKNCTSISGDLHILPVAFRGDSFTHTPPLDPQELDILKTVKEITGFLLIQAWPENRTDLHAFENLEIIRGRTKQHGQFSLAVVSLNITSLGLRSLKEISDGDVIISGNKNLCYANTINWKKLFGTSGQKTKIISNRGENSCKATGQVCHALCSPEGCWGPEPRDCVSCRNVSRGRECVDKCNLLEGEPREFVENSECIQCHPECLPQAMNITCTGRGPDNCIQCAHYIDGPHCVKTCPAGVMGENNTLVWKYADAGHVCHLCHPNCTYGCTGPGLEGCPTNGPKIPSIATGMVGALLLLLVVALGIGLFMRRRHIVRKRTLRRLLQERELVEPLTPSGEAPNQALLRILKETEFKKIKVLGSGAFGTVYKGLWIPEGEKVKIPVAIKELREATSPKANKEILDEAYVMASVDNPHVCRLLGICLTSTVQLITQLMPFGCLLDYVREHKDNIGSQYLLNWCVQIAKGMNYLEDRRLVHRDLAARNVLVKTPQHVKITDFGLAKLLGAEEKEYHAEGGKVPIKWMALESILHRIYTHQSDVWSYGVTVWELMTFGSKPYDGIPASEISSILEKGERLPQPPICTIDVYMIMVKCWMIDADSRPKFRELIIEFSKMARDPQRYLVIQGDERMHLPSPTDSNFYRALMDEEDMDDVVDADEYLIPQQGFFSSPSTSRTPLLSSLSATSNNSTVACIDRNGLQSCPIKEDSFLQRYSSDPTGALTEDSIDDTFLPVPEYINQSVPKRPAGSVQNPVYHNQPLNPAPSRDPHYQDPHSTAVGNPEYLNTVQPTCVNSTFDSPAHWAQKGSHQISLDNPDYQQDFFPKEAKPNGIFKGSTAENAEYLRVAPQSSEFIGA

IC50 | Compound
4700 nM | COc1cc2ncnc(Nc3ccc(C(C)(F)F)cc3)c2cc1OC
10000 nM | COc1cc2ncnc(Nc3ccccc3C(F)(F)F)c2cc1OC
15 nM | COc1cc2ncnc(Nc3cccc(C(F)(F)F)c3)c2cc1OC

Biological target: T1, Epidermal growth factor receptor
Test: Inhibition of EGFR (unknown origin) using biotinylated-PTP1B (Tyr66) as substrate incubated for 5 mins prior to substrate addition measured after 1 hr by ELISA

Compound | IC50
COc1cc2ncnc(Nc3cccc(-c4ccccc4)c3)c2cc1OC | 127 nM
COc1cc2ncnc(Nc3ccc(F)c(Cl)c3)c2cc1OCCO | 63.4 nM
COc1cc2ncnc(Nc3ccc(F)c(Cl)c3)c2cc1OCCNCCN | 12.1 nM
COc1cc2ncnc(Nc3cccc(SC)c3)c2cc1OC | 127 nM
COc1cc2ncnc(Nc3ccccc3)c2cc1OC | 201 nM

Other lines, results leading:

IC50 | Compound
413 nM | COc1cc2ncnc(Nc3cccc(C#N)c3)c2cc1OC
13.6 nM | COc1cc2ncnc(Nc3ccc(F)c(Cl)c3)c2cc1OCCCNCCN
